Data published in patent publication US20080009418A1, “Selective Inhibitors” (Alchemia LTD., priority 2004, published 2008).

What was measured:
Settings in all cases: compound at 10 μM
[1] = molecular target: T1, Human δ-opioid (DOP) (Homo sapiens, UniProt P41143); assay: Radioligand binding, human δ-opioid (DOP) membranes, FlashPlate, [3H]-Bremazocine
T1 construct: purchased Perkin Elmer Biosignal
Procedure, shortened: (§1)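 Cloned human receptor membranes were coated onto FlashPlate wells and incubated with radioligand and compound (added from a 0.5 mM DMSO daughter plate) for 1 hour at room temperature in the dark. Scintillation counting gave percent inhibition, with DMSO defining total and reference ligand defining non-specific binding.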

[2] = molecular target: T2, Human μ-opioid (MOP) (Homo sapiens, UniProt P35372); assay: Radioligand binding, human μ-opioid (MOP) membranes, FlashPlate, [3H]-Naloxone
T2 construct: purchased Perkin Elmer Biosignal
Procedure, shortened: as §1

[3] = molecular target: T3, Human Melanocortin (MC3) (Homo sapiens, UniProt P41968); assay: Radioligand binding, human melanocortin MC3 membranes, FlashPlate, [125I]-NDP-αMSH
T3 construct: purchased Perkin Elmer Biosignal
Procedure, shortened: as §1

[4] = molecular target: T4, Human opioid (ORL1) (Homo sapiens, UniProt P41146); assay: Radioligand binding, human opioid ORL1 membranes, FlashPlate, [125I]-Nociceptin
T4 construct: purchased Perkin Elmer Biosignal
Procedure, shortened: as §1

[5] = molecular target: T5, Human neurokinin (NK1) (Homo sapiens, UniProt P25103); assay: Radioligand binding, human neurokinin NK1 membranes, filtration, [125I]-Substance P
T5 construct: purchased Perkin Elmer Biosignal
Procedure, shortened: (§2)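 Percent inhibition of radioligand binding measured on recombinant human membranes: NK1 with [125I]-Substance P, KOP with [3H]-Diprenorphine. Incubation 1 h at room temperature, then harvest onto 0.3% PEI-soaked filters, cold Tris-HCl pH 7.4 washes and scintillation counting; non-specific binding from reference ligand wells.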

[6] = molecular target: T6, Human melanin-concentrating hormone (MCH1) (Homo sapiens, UniProt Q99705); assay: Radioligand binding, human melanin-concentrating hormone MCH1 membranes, FlashPlate, [125I]-S36057
T6 construct: purchased Perkin Elmer Biosignal
Procedure, shortened: as §1

[7] = molecular target: T7, Human melanocortin (MC5) (Homo sapiens, UniProt P33032); assay: Radioligand binding, human melanocortin MC5 membranes, FlashPlate, [125I]-NDP-αMSH
T7 construct: purchased Perkin Elmer Biosignal
Procedure, shortened: as §1

[8] = molecular target: T8, Human neuropeptide Y (NPY-Y1) (Homo sapiens, UniProt P25929); assay: Radioligand binding, human neuropeptide Y NPY-Y1 membranes, FlashPlate, [125I]-PYY
T8 construct: purchased Perkin Elmer Biosignal
T8 sequence (P25929 1-384): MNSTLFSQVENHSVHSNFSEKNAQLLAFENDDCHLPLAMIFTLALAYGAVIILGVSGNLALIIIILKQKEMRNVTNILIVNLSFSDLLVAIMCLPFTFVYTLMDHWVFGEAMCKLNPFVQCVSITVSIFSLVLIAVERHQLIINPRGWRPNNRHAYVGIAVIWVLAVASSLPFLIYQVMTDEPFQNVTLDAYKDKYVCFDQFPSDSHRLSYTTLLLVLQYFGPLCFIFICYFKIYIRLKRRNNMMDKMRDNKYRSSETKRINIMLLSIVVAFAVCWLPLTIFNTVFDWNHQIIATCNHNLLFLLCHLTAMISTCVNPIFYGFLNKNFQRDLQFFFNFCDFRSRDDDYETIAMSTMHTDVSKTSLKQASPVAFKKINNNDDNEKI
Procedure, shortened: as §1

[9] = molecular target: T9, Human Melanocortin (MC4) (Homo sapiens, UniProt P32245); assay: Radioligand binding, human melanocortin MC4 membranes, FlashPlate, [125I]-NDP-αMSH
T9 construct: purchased Perkin Elmer Biosignal
Procedure, shortened: as §1

[10] = molecular target: T10, Human κ-Opioid (KOP) (Homo sapiens, UniProt P41145); assay: Radioligand binding, human κ-opioid (KOP) membranes, filtration, [3H]-Diprenorphine
T10 construct: purchased Perkin Elmer Biosignal
Procedure, shortened: as §2

[11] = molecular target: T11, Mouse urotensin (mUR2) (Mus musculus, UniProt Q8VIH9); assay: Radioligand binding, mouse urotensin mUR2 membranes, FlashPlate, [125I]-Urotensin II
T11 construct: purchased Perkin Elmer Biosignal
T11 sequence (Q8VIH9 1-385): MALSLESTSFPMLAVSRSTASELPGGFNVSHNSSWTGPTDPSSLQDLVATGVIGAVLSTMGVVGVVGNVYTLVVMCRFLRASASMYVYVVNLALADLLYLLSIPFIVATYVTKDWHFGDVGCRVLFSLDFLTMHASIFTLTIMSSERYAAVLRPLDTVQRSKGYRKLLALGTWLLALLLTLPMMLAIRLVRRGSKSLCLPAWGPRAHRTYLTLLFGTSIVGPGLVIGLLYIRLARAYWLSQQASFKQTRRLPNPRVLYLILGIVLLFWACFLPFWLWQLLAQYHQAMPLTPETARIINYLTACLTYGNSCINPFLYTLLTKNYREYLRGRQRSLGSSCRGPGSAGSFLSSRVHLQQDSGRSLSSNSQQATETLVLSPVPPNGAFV
Procedure, shortened: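 Cloned mouse urotensin (mUR2) receptor membranes from Perkin Elmer Biosignal were immobilized in FlashPlate microplates using a proprietary coating. Each well got 19.5 μl buffer, then 0.5 μl of DMSO, reference ligand, or compound. Adding 5 μl of [125I]-Urotensin II, diluted to 5× final concentration in binding buffer, started binding. Plates were sealed with TopSeal-A and incubated 1 hour at room temperature in the dark. Wells were counted for 30 seconds each on a TopCount after a 60-second delay, and percentage inhibition was calculated.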

T5 sequence (P25103 whole entry): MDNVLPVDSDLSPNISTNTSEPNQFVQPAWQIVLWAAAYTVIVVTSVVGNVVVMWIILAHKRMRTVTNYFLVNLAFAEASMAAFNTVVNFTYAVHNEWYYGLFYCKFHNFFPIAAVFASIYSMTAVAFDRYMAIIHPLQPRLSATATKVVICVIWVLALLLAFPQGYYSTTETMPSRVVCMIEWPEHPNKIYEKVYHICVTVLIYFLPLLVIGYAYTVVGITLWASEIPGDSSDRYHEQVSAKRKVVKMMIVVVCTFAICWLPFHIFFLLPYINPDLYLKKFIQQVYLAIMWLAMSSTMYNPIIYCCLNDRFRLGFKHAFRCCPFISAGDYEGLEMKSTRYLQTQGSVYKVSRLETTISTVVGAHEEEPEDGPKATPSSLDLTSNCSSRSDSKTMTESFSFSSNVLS
T6 sequence (Q99705 whole entry): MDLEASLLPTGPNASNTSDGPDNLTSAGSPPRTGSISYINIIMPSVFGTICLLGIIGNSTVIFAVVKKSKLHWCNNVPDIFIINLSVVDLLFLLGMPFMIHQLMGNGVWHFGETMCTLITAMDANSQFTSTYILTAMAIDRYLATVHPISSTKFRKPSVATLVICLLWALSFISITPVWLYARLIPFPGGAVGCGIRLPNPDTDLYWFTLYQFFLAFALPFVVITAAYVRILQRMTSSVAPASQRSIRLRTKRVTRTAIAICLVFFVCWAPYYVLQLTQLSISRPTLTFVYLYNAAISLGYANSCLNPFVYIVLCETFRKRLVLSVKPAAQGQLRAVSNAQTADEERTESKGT
T2 sequence (P35372 whole entry): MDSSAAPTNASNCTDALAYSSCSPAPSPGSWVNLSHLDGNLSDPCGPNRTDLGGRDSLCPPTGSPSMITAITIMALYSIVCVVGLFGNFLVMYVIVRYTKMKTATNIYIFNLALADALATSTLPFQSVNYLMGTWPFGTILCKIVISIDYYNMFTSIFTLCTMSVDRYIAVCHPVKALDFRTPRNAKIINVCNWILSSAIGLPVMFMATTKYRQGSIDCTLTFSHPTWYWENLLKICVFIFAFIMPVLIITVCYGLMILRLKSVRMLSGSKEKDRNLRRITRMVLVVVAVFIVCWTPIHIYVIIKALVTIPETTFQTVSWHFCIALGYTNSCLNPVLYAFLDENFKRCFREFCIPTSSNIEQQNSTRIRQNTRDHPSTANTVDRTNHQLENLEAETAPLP
T10 sequence (P41145 whole entry): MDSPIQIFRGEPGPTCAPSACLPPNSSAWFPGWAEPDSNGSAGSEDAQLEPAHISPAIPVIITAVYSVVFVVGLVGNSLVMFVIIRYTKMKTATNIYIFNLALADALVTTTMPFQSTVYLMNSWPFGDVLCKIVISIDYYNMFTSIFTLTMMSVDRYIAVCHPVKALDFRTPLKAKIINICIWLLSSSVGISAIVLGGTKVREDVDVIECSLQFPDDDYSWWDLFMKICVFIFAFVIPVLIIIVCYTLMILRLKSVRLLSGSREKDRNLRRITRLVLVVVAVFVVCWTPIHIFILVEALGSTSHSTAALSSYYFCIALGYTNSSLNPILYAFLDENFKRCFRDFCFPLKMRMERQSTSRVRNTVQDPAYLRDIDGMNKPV
T1 sequence (P41143 whole entry): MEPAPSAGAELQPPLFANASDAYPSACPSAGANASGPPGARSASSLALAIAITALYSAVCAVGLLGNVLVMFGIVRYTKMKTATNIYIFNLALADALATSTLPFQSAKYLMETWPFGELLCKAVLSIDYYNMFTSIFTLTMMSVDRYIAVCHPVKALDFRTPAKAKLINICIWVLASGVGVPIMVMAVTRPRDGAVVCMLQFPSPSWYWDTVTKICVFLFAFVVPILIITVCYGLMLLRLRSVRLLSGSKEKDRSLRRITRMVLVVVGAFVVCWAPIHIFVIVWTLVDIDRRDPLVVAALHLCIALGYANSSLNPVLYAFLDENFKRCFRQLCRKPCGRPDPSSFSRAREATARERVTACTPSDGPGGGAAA
T9 sequence (P32245 whole entry): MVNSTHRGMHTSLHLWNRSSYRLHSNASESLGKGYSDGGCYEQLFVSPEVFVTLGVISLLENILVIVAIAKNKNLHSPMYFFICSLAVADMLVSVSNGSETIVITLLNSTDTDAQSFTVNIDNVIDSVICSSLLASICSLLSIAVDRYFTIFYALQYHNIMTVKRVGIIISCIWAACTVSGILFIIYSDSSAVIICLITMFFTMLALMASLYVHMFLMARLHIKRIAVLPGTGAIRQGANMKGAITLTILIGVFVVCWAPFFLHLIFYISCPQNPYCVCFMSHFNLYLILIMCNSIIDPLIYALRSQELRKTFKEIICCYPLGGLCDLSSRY
T3 sequence (P41968 whole entry): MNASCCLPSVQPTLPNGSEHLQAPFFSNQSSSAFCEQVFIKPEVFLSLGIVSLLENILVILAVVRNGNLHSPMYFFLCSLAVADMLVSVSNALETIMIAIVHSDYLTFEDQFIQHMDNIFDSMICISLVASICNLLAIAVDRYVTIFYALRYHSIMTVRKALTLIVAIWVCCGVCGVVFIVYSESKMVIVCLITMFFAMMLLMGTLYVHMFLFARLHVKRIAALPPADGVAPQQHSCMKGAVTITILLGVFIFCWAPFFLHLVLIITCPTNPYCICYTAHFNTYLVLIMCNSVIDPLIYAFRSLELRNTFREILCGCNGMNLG
T4 sequence (P41146 whole entry): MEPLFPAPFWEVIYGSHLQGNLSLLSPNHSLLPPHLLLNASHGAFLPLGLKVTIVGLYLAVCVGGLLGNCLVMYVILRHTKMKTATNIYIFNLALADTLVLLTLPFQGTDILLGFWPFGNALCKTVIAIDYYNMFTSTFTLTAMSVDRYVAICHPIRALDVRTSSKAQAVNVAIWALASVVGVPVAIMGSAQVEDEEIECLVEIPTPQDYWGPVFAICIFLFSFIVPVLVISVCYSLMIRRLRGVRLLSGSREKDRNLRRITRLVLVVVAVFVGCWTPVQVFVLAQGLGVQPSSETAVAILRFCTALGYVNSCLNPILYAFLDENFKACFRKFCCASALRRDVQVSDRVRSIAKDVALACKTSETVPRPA
T7 sequence (P33032 whole entry): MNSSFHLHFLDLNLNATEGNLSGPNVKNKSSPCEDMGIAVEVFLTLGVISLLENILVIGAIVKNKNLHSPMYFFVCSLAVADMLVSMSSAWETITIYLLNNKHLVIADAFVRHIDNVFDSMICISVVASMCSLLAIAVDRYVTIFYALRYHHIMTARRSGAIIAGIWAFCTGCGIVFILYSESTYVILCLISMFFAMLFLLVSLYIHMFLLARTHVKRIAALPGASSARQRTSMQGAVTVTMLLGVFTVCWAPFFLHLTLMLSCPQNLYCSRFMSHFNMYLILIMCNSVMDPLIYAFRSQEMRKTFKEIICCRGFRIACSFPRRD

CO[C@H]1[C@H](O)[C@@H](COCc2ccc(Cl)cc2)OC(OCc2ccc(-c3ccccc3)cc2)[C@@H]1NC(=O)CCNC(=N)N (stereo partly drawn) [compound 63]
A1 radioligand binding inhibition ([1]; human δ-opioid (DOP) membranes): − (“−” indicates less than 50% inhibition at 10 μM) | A7 radioligand binding inhibition ([2]; human μ-opioid (MOP) membranes): + (“+” indicates greater than 50% inhibition at 10 μM) | A3 radioligand binding inhibition ([3]; human melanocortin MC3 membranes): + (“+” indicates greater than 50% inhibition at 10 μM) | A10 radioligand binding inhibition ([4]; human ORL1 membranes): + (“+” indicates greater than 50% inhibition at 10 μM) | A8 radioligand binding inhibition ([5]; human neurokinin NK1 membranes): + (“+” indicates greater than 50% inhibition at 10 μM) | A6 radioligand binding inhibition ([6]; human MCH1 membranes): + (“+” indicates greater than 50% inhibition at 10 μM) | A5 radioligand binding inhibition ([7]; human melanocortin MC5 membranes): + (“+” indicates greater than 50% inhibition at 10 μM) | A9 radioligand binding inhibition ([8]; human NPY-Y1 membranes): + (“+” indicates greater than 50% inhibition at 10 μM) | A4 radioligand binding inhibition ([9]; human melanocortin MC4 membranes): + (“+” indicates greater than 50% inhibition at 10 μM) | A2 radioligand binding inhibition ([10]; human κ-opioid (KOP) membranes): + (“+” indicates greater than 50% inhibition at 10 μM) | A11 radioligand binding inhibition ([11]; mouse urotensin mUR2 membranes): − (“−” indicates less than 50% inhibition at 10 μM)

N=C(N)NCC(=O)NC1C(OCc2ccc(-c3ccccc3)cc2)OC(COCc2ccc(Cl)cc2)C(O)C1OCc1ccc2ccccc2c1 (stereo not drawn) [compound 404]
A1: inhibition of radioligand binding ([1]; [3H]-Bremazocine, human DOP membranes): − (“−” indicates less than 50% inhibition at 10 μM) | A7: inhibition of radioligand binding ([2]; [3H]-Naloxone, human MOP membranes): − (“−” indicates less than 50% inhibition at 10 μM) | A3: inhibition of radioligand binding ([3]; [125I]-NDP-αMSH, human MC3 membranes): + (“+” indicates greater than 50% inhibition at 10 μM) | A10: inhibition of radioligand binding ([4]; [125I]-Nociceptin, human ORL1 membranes): + (“+” indicates greater than 50% inhibition at 10 μM) | A8: inhibition of radioligand binding ([5]; [125I]-Substance P, human NK1 membranes): + (“+” indicates greater than 50% inhibition at 10 μM) | A6: inhibition of radioligand binding ([6]; [125I]-S36057, human MCH1 membranes): − (“−” indicates less than 50% inhibition at 10 μM) | A5: inhibition of radioligand binding ([7]; [125I]-NDP-αMSH, human MC5 membranes): + (“+” indicates greater than 50% inhibition at 10 μM) | A9: inhibition of radioligand binding ([8]; [125I]-PYY, human NPY-Y1 membranes): − (“−” indicates less than 50% inhibition at 10 μM) | A4: inhibition of radioligand binding ([9]; [125I]-NDP-αMSH, human MC4 membranes): + (“+” indicates greater than 50% inhibition at 10 μM) | A2: inhibition of radioligand binding ([10]; [3H]-Diprenorphine, human KOP membranes): − (“−” indicates less than 50% inhibition at 10 μM) | A11: inhibition of radioligand binding ([11]; [125I]-Urotensin II, mouse mUR2 membranes): − (“−” indicates less than 50% inhibition at 10 μM)

CSC1OC(COCc2ccccc2)C(O)C(OCc2ccc3ccccc3c2)C1NC(=O)CCCNC(=N)N (stereo not drawn) [compound 305]
A1: inhibition of radioligand binding, human δ-opioid (DOP) ([1]; [3H]-Bremazocine): − (“−” indicates less than 50% inhibition at 10 μM) | A7: inhibition of radioligand binding, human μ-opioid (MOP) ([2]; [3H]-Naloxone): − (“−” indicates less than 50% inhibition at 10 μM) | A3: inhibition of radioligand binding, human melanocortin (MC3) ([3]; [125I]-NDP-αMSH): − (“−” indicates less than 50% inhibition at 10 μM) | A10: inhibition of radioligand binding, human opioid (ORL1) ([4]; [125I]-Nociceptin): − (“−” indicates less than 50% inhibition at 10 μM) | A8: inhibition of radioligand binding, human neurokinin (NK1) ([5]; [125I]-Substance P): + (“+” indicates greater than 50% inhibition at 10 μM) | A6: inhibition of radioligand binding, human melanin-concentrating hormone (MCH1) ([6]; [125I]-S36057): − (“−” indicates less than 50% inhibition at 10 μM) | A5: inhibition of radioligand binding, human melanocortin (MC5) ([7]; [125I]-NDP-αMSH): + (“+” indicates greater than 50% inhibition at 10 μM) | A9: inhibition of radioligand binding, human neuropeptide Y (NPY-Y1) ([8]; [125I]-PYY): − (“−” indicates less than 50% inhibition at 10 μM) | A4: inhibition of radioligand binding, human melanocortin (MC4) ([9]; [125I]-NDP-αMSH): − (“−” indicates less than 50% inhibition at 10 μM) | A2: inhibition of radioligand binding, human κ-opioid (KOP) ([10]; [3H]-Diprenorphine): − (“−” indicates less than 50% inhibition at 10 μM) | A11: inhibition of radioligand binding, mouse urotensin (mUR2) ([11]; [125I]-Urotensin II): − (“−” indicates less than 50% inhibition at 10 μM)
